This is an account of results in US9265253B2, “Use of macrocyclic picolinamides as fungicides” (DOW AGROSCIENCES LLC, priority 2013, dated 2016).

For assay [1], the system named is Mycosphaerella graminicola; Anamorph: Septoria tritici. In words: Leaf Blotch of Wheat (SEPTTR) disease control. Conditions: for pest or weed control at 100 ppm / pest or weed control at 121.5 g/ha: Zymoseptoria tritici; for pest or weed control at 121.5 g/ha: rate 121.5 g/H. In kind it is in vivo. Put shortly: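 Wheat seedlings (Yuma, first leaf emerged) sprayed to run-off with compound in acetone/water with 110 ppm Triton X-100, or track-sprayed as EC with 0.1% Trycol 5941. Septoria tritici spores inoculated before or after treatment. Dew chambers, then 20 °C greenhouse. Percent disease control derived from severity (0–100%) relative to untreated plants.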

For assay [2], the system named is Puccinia triticina; Synonym: Puccinia recondite f. Sp. Tritici. In words: Wheat Brown Rust (PUCCRT) disease control. In kind it is in vivo. Particulars: Puccinia triticina, topical; for pest or weed control at 100 ppm: rate 100 ppm; for pest or weed control at 121.5 g/ha: rate 121.5 g/H. Summed up:
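Brown rust on first-leaf Yuma wheat: spore inoculation before or after spray application (acetone/Triton X-100 solution, or EC with Trycol in track spray), overnight 100% RH at 22 °C, disease developed at 24 °C. Severity scored 0–100% and converted to percent control against untreated.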

Setting [3] is: 24 h, 1 Day Protectant, rate 100 ppm, read-out: SEPTTR 1 DP disease control.
Where [4] appears, read: 24 h, 1 Day Protectant, read-out: SEPTTR 1 DP disease control.
Where [5] appears, read: 72 h, 3 Day Curative, rate 100 ppm, read-out: SEPTTR 3 DC disease control.
Where [6] appears, read: 72 h, 3 Day Curative, read-out: SEPTTR 3 DC disease control.
Where [7] appears, read: 24 h, 1 Day Protectant, read-out: PUCCRT 1 DP disease control.
Where [8] appears, read: 72 h, 3 Day Curative, read-out: PUCCRT 3 DC disease control.

Read-outs that look alike come from different tables or passages of the source.

With `CCOCC(=O)OCOc1c(OC)ccnc1C(=O)N[C@H]1CCC[C@H](CCC(C)C)[C@@H](OCCCC(F)(F)F)[C@H](C)OC1=O` [Compound F162], the pest or weed control at 100 ppm in assay [1] (setting [3]), in assay [1] (setting [5]), in assay [2] (setting [7]) and in assay [2] (setting [8]) was 80 to 100% throughout. Further, the pest or weed control at 121.5 g/ha in assay [1] (setting [4]) was in the range of 80 to 100%; in assay [1] (setting [6]), 80 to 100%; in assay [2] (setting [7]) it was 80 to 100%; in assay [2] (setting [8]), 0 to 80%.
As to `COc1ccnc(C(=O)N[C@H]2CCC[C@H](Cc3ccc(C)cc3)[C@@H](OCCCC(F)(F)F)[C@H](C)OC2=O)c1O` [Compound F10], the “SEPTTR 3 DC disease control” value in assay [1] (3 Day Curative, rate 100 ppm) is recorded as “A (80-100)”. The pest or weed control at 100 ppm in assay [1] (setting [3]), in assay [2] (setting [7]) and in assay [2] (setting [8]) was 80 to 100% each time. Besides, the pest or weed control at 121.5 g/ha lay in the range of 80 to 100% in assay [1] (setting [4]), 80 to 100% in assay [1] (setting [6]), 80 to 100% in assay [2] (setting [7]) and 0 to 80% in assay [2] (setting [8]).
Consider `COc1ccnc(C(=O)N[C@H]2CCC[C@H](CCC(C)C)[C@@H](Oc3ccccc3)[C@H](C)OC2=O)c1OC(C)=O` [Compound F62], for which the pest or weed control at 100 ppm in assay [1] (setting [3]), in assay [1] (setting [5]), in assay [2] (setting [7]) and in assay [2] (setting [8]) was 80 to 100% in each case. Besides, the pest or weed control at 121.5 g/ha fell in the range of 80 to 100% in assay [1] (setting [4]), 80 to 100% in assay [1] (setting [6]), 80 to 100% in assay [2] (setting [7]) and 0 to 80% in assay [2] (setting [8]).
For `COc1ccnc(C(=O)N[C@H]2CCC[C@H](CCC(C)C)[C@@H](OC)[C@H](C)OC2=O)c1O` [Compound F7], the pest or weed control at 100 ppm lay within 80 to 100% in assay [1] (setting [3]), 80 to 100% in assay [1] (setting [5]), 80 to 100% in assay [2] (setting [7]) and 0 to 80% in assay [2] (setting [8]).
Turning to `CCCO[C@@H]1[C@@H](CC2CCCC2)CCC[C@H](NC(=O)c2nccc(OC)c2O)C(=O)O[C@H]1C` [Compound F36], the pest or weed control at 100 ppm in assay [1] (setting [3]) and in assay [2] (setting [7]) was 80 to 100% throughout.
As for `COc1ccc(C[C@H]2CCC[C@H](NC(=O)c3nccc(OC)c3OCOC(C)=O)C(=O)O[C@@H](C)[C@@H]2OCC2CC2)cc1` [Compound F116], the pest or weed control at 100 ppm in assay [1] (setting [3]), in assay [1] (setting [5]), in assay [2] (setting [7]) and in assay [2] (setting [8]) was 80 to 100% throughout. The pest or weed control at 121.5 g/ha in assay [1] (setting [4]), in assay [1] (setting [6]), in assay [2] (setting [7]) and in assay [2] (setting [8]) was 80 to 100% throughout.
For the compound `COc1ccnc(C(=O)N[C@H]2CCC[C@H](Cc3ccc(F)cc3)[C@@H](OC(=O)C(C)C)[C@H](C)OC2=O)c1OCOC(C)=O` [Compound F105], the pest or weed control at 100 ppm in assay [1] (setting [3]), in assay [1] (setting [5]) and in assay [2] (setting [8]) was 80 to 100% in each case. The pest or weed control at 121.5 g/ha in assay [1] (setting [4]), in assay [1] (setting [6]), in assay [2] (setting [7]) and in assay [2] (setting [8]) was 80 to 100% throughout.
Take `COc1ccnc(C(=O)N[C@H]2CCC[C@H](CC3CCCC3)[C@@H](Oc3ccccc3)[C@H](C)OC2=O)c1OCOC(C)=O` [Compound F115]: the pest or weed control at 100 ppm in assay [1] (setting [3]), in assay [1] (setting [5]), in assay [2] (setting [7]) and in assay [2] (setting [8]) was 80 to 100% throughout. Also, the pest or weed control at 121.5 g/ha was in the range of 80 to 100% in assay [1] (setting [4]), 80 to 100% in assay [1] (setting [6]), 80 to 100% in assay [2] (setting [7]) and 0 to 80% in assay [2] (setting [8]).
Take `COc1ccnc(C(=O)N[C@H]2CCC[C@H](Cc3ccc(C)cc3)[C@@H](OCC3CC3)[C@H](C)OC2=O)c1O` [Compound F42]: the pest or weed control at 100 ppm in assay [1] (setting [3]), in assay [1] (setting [5]), in assay [2] (setting [7]) and in assay [2] (setting [8]) was 80 to 100% each time.
As for `COc1ccnc(C(=O)N[C@H]2CCC[C@H](CC3CCCC3)[C@@H](OCC(C)C)[C@H](C)OC2=O)c1OC(C)=O` [Compound F75], the pest or weed control at 100 ppm in assay [1] (setting [3]), in assay [1] (setting [5]), in assay [2] (setting [7]) and in assay [2] (setting [8]) was 80 to 100% in each case. Besides, the pest or weed control at 121.5 g/ha in assay [1] (setting [4]) lay within 80 to 100%; in assay [1] (setting [6]), 80 to 100%; in assay [2] (setting [7]) it was 80 to 100%; in assay [2] (setting [8]), 0 to 80%.
On to `CC[C@H]1CCC[C@H](NC(=O)c2nccc(OC)c2O)C(=O)O[C@@H](C)[C@@H]1OCC(C)C` [Compound F48], for which the pest or weed control at 100 ppm in assay [1] (setting [3]), in assay [1] (setting [5]), in assay [2] (setting [7]) and in assay [2] (setting [8]) was 80 to 100% throughout.
As to `COc1ccnc(C(=O)N[C@H]2CCC[C@H](C)[C@@H](OCc3ccccc3)[C@H](C)OC2=O)c1OCOC(C)=O` [Compound F125], the pest or weed control at 100 ppm in assay [1] (setting [3]), in assay [1] (setting [5]), in assay [2] (setting [7]) and in assay [2] (setting [8]) was 80 to 100% in each case. Besides, the pest or weed control at 121.5 g/ha in assay [1] (setting [4]), in assay [1] (setting [6]), in assay [2] (setting [7]) and in assay [2] (setting [8]) was 80 to 100% each time.
Consider `COc1ccnc(C(=O)N[C@H]2CCC[C@H](CCOc3ccccc3)[C@@H](OCC3CC3)[C@H](C)OC2=O)c1OCOC(C)=O` [Compound F142], for which the pest or weed control at 100 ppm in assay [1] (setting [3]), in assay [1] (setting [5]), in assay [2] (setting [7]) and in assay [2] (setting [8]) was 80 to 100% each time. Also, the pest or weed control at 121.5 g/ha fell in the range of 80 to 100% in assay [1] (setting [4]), 0 to 80% in assay [1] (setting [6]), 80 to 100% in assay [2] (setting [7]) and 80 to 100% in assay [2] (setting [8]).
As for `CCOCC(=O)OCOc1c(OC)ccnc1C(=O)N[C@H]1CCC[C@H](Cc2ccc(OC)cc2)[C@@H](OCC(C)C)[C@H](C)OC1=O` [Compound F179], the pest or weed control at 100 ppm in assay [1] (setting [3]), in assay [1] (setting [5]), in assay [2] (setting [7]) and in assay [2] (setting [8]) was 80 to 100% each time. Also, the pest or weed control at 121.5 g/ha in assay [1] (setting [4]) lay within 80 to 100%; in assay [1] (setting [6]), 80 to 100%; in assay [2] (setting [7]), 80 to 100%; in assay [2] (setting [8]), 0 to 80%.
For the compound `COc1ccnc(C(=O)N[C@H]2CCC[C@H](C)[C@@H](OCc3ccccc3)[C@H](C)OC2=O)c1O` [Compound F39], the pest or weed control at 100 ppm in assay [1] (setting [3]) was in the range of 80 to 100%; in assay [1] (setting [5]), 0 to 80%; in assay [2] (setting [7]), 80 to 100%; in assay [2] (setting [8]), 80 to 100%.
Take `COc1ccnc(C(=O)N[C@H]2CCC[C@H](Cc3ccc(F)cc3)[C@@H](OCC(F)F)[C@H](C)OC2=O)c1OCOC(C)=O` [Compound F103]: the pest or weed control at 100 ppm in assay [1] (setting [3]), in assay [1] (setting [5]), in assay [2] (setting [7]) and in assay [2] (setting [8]) was 80 to 100% in each case. The pest or weed control at 121.5 g/ha in assay [1] (setting [4]), in assay [1] (setting [6]), in assay [2] (setting [7]) and in assay [2] (setting [8]) was 80 to 100% each time.
On to `COc1ccnc(C(=O)N[C@H]2CCC[C@H](CCC(C)C)[C@@H](OCC(C)C)[C@H](C)OC2=O)c1OCOC(C)=O` [Compound F90], for which the pest or weed control at 100 ppm in assay [1] (setting [3]), in assay [1] (setting [5]), in assay [2] (setting [7]) and in assay [2] (setting [8]) was 80 to 100% throughout. The pest or weed control at 121.5 g/ha in assay [1] (setting [4]), in assay [1] (setting [6]), in assay [2] (setting [7]) and in assay [2] (setting [8]) was 80 to 100% each time.
In the case of `COc1ccnc(C(=O)N[C@H]2CCC[C@H](CCOc3ccccc3)[C@@H](OCC3CC3)[C@H](C)OC2=O)c1O` [Compound F57], the pest or weed control at 100 ppm was in the range of 80 to 100% in assay [1] (setting [3]), 0 to 80% in assay [1] (setting [5]), 80 to 100% in assay [2] (setting [7]) and 80 to 100% in assay [2] (setting [8]).
On to `COc1ccc(C[C@H]2CCC[C@H](NC(=O)c3nccc(OC)c3O)C(=O)O[C@@H](C)[C@@H]2OC(=O)C2CCCC2)cc1` [Compound F28], for which the pest or weed control at 100 ppm in assay [1] (setting [3]) lay within 80 to 100%; in assay [1] (setting [5]), 0 to 80%; in assay [2] (setting [7]), 80 to 100%.
